Measured values published in patent US10112945B2, “Fused quinoline compunds as PI3K, mTOR inhibitors” (ADVENCHEN PHARMACEUTICALS, NANJING LTD., priority 2014, dated 2018).

Key:
mTor = target: T1, mTor (Homo sapiens, UniProt P42345); assay: In vitro kinase inhibition, mTor (Millipore/Merck kinases panel screening); format: biochemical; settings: compound at 0.03 μM; scaffold drawing 7 series
T1 construct: purchased Millipore/Merck KGA
Experimental: (§1) In vitro kinase inhibition activities included Pi3k and mTor activities can be tested with Millipore/Merck KGA of Europe in their kinases panel screening. Animal antitumor activity testing can be conducted by various cancer xenograft models for a compound of formula I.
(§2) The following compounds or a pharmaceutically acceptable salt thereof, but not limited, can also be prepared similarly according to the methods described in Scheme I-Scheme II. They are also tested for the inhibitions on mTor or pi3k kinases, or tumor cell lines.

pi3K = assay: In vitro kinase inhibition, pi3K (Millipore/Merck kinases panel screening); format: biochemical; settings: compound at 0.03 μM; scaffold drawing 7 series
Experimental: as §1, §2

Compound | activity at 0.03 µM (mTor) [%] | pi3K % activity @0.03 μM (pi3K) [%] | mTor % activity @0.03 μM (mTor) [%]
FC(F)(F)c1cc(-n2c3c4cc(-c5ccc(NCCN6CCOCC6)nc5)ccc4ncc3n3cnnc23)ccc1Cl [5-{16-[4-chloro-3-(trifluoromethyl)phenyl]-8,11,13,14,16-pentaazatetracyclo[8.6.0.0^2,7.0^11,15]-hexadeca-1(10),2,4,6,8,12,14-heptaen-4-yl}-N-[2-(morpholin-4-yl)ethyl]pyridin-2-amine] | 20 | 93 | –
FC(F)(F)c1cc(-n2c3c4cc(-c5ccc(NCCN6CCCC6)nc5)ccc4ncc3n3cnnc23)ccc1Cl [5-{16-[4-chloro-3-(trifluoromethyl)phenyl]-8,11,13,14,16-pentaazatetracyclo[8.6.0.0^2,7.0^11,15]-hexadeca-1(10),2,4,6,8,12,14-heptaen-4-yl}-N-[2-(pyrrolidin-1-yl)ethyl]pyridin-2-amine] | 15 | 98 | –
COCCNc1ccc(-c2ccc3ncc4c(c3c2)n(-c2cccc(C(F)(F)F)c2)c2nncn42)cn1 [N-(2-methoxyethyl)-5-{16-[3-(trifluoromethyl)phenyl]-8,11,13,14,16-pentaazatetracyclo-[8.6.0.0^2,7.0^11,15]-hexadeca-1(10),2,4,6,8,12,14-heptaen-4-yl}pyridin-2-amine] | -3 | 92 | –
CN1CCN(CC(=O)Nc2ccc(-c3ccc4ncc5c(c4c3)n(-c3ccc(Cl)c(C(F)(F)F)c3)c3nncn53)cn2)CC1 [N-(5-{16-[4-chloro-3-(trifluoromethyl)phenyl]-8,11,13,14,16-pentaazatetracyclo[8.6.0.0^2,7.0^11,15]-hexadeca-1(10),2,4,6,8,12,14-heptaen-4-yl}pyridin-2-yl)-2-(4-methylpiperazin-1-yl)acetamide] | -4 | 74 | –
O=C(CN1CCOCC1)Nc1ccc(-c2ccc3ncc4c(c3c2)n(-c2ccc(Cl)c(C(F)(F)F)c2)c2nncn42)cn1 [N-(5-{16-[4-chloro-3-(trifluoromethyl)phenyl]-8,11,13,14,16-pentaazatetracyclo[8.6.0.0^2,7.0^11,15]-hexadeca-1(10),2,4,6,8,12,14-heptaen-4-yl}pyridin-2-yl)-2-(morpholin-4-yl)acetamide] | 17 | 82 | –
O=C(CN1CCCC1)Nc1ccc(-c2ccc3ncc4c(c3c2)n(-c2ccc(Cl)c(C(F)(F)F)c2)c2nncn42)cn1 [N-(5-{16-[4-chloro-3-(trifluoromethyl)phenyl]-8,11,13,14,16-pentaazatetracyclo[8.6.0.0^2,7.0^11,15]-hexadeca-1(10),2,4,6,8,12,14-heptaen-4-yl}pyridin-2-yl)-2-(pyrrolidin-1-yl)acetamide] | 4 | 82 | –
FC(F)(F)c1cccc(-n2c3c4cc(-c5ccc(NCCN6CCCC6)nc5)ccc4ncc3n3cnnc23)c1 [N-[2-(pyrrolidin-1-yl)ethyl]-5-{16-[3-(trifluoromethyl)phenyl]-8,11,13,14,16-pentaazatetracyclo-[8.6.0.0^2,7.0^11,15]-hexadeca-1(10),2,4,6,8,12,14-heptaen-4-yl}pyridin-2-amine] | 4 | 101 | –
N-[2-(morpholin-4-yl)ethyl]-5-{16-[3-(trifluoromethyl)phenyl]-8,11,13,14,16-pentaazatetra-cyclo[8.6.0.0^2,7.0^11,15]hexadeca-1(10),2,4,6,8,12,14-heptaen-4-yl}pyridin-2-amine | – | 94 | 43
